Laboratory results from patent US6683078B2, “Use of sulfonyl aryl or heteroaryl hydroxamic acids and derivatives thereof as aggrecanase inhibitors” (priority 2001, dated 2004).
Structures can show the parent of a compound that is named as a salt.

Key:
Recombinant human MMP-1 = target: T1, Recombinant human MMP-1 (Homo sapiens, UniProt P03956); test: In vitro MMP inhibition, fluorogenic peptide substrate; format: biochemical
T1 construct: made in house; host or cells: transfected HT-1080 cells
T1 sequence (P03956 100-469): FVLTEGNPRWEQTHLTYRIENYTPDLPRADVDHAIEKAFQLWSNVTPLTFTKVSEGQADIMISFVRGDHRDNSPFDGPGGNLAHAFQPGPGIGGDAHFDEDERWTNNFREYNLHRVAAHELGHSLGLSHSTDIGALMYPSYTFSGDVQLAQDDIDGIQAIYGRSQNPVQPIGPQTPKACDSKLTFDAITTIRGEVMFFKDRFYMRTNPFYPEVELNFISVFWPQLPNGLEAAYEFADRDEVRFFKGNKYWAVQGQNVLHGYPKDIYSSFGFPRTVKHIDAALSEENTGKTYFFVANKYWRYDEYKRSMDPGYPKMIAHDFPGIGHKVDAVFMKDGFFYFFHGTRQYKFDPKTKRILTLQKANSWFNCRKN
Protocol: These enzymes were prepared in the Assignee's laboratories following usual laboratory procedures.
The MMP-1 was activated using 4-aminophenylmercuric acetate (APMA), and then purified over a hydroxamic acid column.
(§1) The enzyme substrate was a methoxycoumarin-containing polypeptide having the following sequence:
MCA-ProLeuGlyLeuDpaAlaArgNH2
(§2) Here, “MCA” is methoxycoumarin and “Dpa” is 3-(2,4-dinitrophenyl)-L-2,3-diaminopropionyl alanine.
(§3) These solutions were then compared to a control (which contained an equal amount of DMSO/buffer solution, but no hydroxamate compound) using Microfluor™ White Plates (Dynatech, Chantilly, Va.). More specifically, the MMPs were activated with APMA or trypsin. Then the various hydroxamate/DMSO/buffer solutions and control solutions were introduced into separate plates at room temperature with the activated MMP. After 10 minutes, 4 um of the MMP substrate was added to each plate. The plates were then incubated for 5 minutes at room temperature. […] Inhibition was measured as a reduction in fluorescent intensity as a function of inhibitor concentration using a Perkin Elmer (Norwalk, Conn.) L550 plate reader. The IC50's were then calculated from these measurements.

Recombinant human MMP-13 = target: T2, Recombinant human MMP-13 (Homo sapiens, UniProt P45452); test: as above; format: biochemical
T2 construct: made in house; host or cells: baculovirus / insect cells
Description: The expressed proenzyme was first purified over a heparin agarose column, and then over a chelating zinc chloride column. The proenzyme was then activated by APMA for use in the assay.
as §1
MCA-ProLeuGlyLeuDpaAlaArgNH2
as §2, §3

Recombinant human MMP-2 = target: T3, Recombinant human MMP-2 (Homo sapiens, UniProt P08253); test: as above; format: biochemical
T3 construct: made in house
T3 sequence (P08253 110-660): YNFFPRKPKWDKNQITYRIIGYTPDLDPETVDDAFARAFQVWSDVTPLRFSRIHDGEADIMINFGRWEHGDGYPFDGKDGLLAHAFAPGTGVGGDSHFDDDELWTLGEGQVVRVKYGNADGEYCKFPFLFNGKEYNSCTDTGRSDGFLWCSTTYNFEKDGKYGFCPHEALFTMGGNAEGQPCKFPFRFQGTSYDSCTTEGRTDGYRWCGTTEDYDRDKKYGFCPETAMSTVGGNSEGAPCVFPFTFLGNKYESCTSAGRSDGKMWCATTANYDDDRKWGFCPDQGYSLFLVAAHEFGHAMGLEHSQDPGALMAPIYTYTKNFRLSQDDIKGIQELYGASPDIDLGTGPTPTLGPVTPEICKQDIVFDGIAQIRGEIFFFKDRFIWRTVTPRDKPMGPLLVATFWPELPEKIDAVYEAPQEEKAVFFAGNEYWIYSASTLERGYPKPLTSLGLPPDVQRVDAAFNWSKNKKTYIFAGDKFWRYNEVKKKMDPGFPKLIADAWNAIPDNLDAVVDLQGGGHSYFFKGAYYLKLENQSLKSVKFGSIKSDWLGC
Description: as §1
MCA-ProLeuGlyLeuDpaAlaArgNH2
as §2, §3

Recombinant human MMP-8 = target: T4, Recombinant human MMP-8 (Homo sapiens, UniProt P22894); test: as above; format: biochemical; conditions: Table B
T4 construct: made in house
Protocol: (§4) These enzymes were prepared in the Assignee's laboratories following usual laboratory procedures. Specifics for preparing and using these enzymes can be found in the scientific literature describing these enzymes.
as §1
MCA-ProLeuGlyLeuDpaAlaArgNH2
as §2, §3

[1] = tested on: solid tumor cancers (colorectal, pancreatic, ovarian, and prostate); conditions: cited from earlier work
Recombinant human MMP-9 = target: T5, Recombinant human MMP-9 (Homo sapiens, UniProt P14780); test: In vitro MMP inhibition, fluorogenic peptide substrate; format: biochemical; conditions: Table B
T5 construct: made in house
Protocol: as §1
MCA-ProLeuGlyLeuDpaAlaArgNH2
as §2
More specifically, the MMPs were activated with APMA or trypsin. […] After 10 minutes, 4 um of the MMP substrate was added to each plate. The plates were then incubated for 5 minutes at room temperature. […] Inhibition was measured as a reduction in fluorescent intensity as a function of inhibitor concentration using a Perkin Elmer (Norwalk, Conn.) L550 plate reader. The IC50's were then calculated from these measurements.

Recombinant human MMP-14 = target: T6, Recombinant human MMP-14 (Homo sapiens, UniProt P50281); test: as above; format: biochemical; conditions: Table B
T6 construct: made in house
Protocol: as §4, §1
MCA-ProLeuGlyLeuDpaAlaArgNH2
as §2, §3

Recombinant human MMP-3 = target: T7, Recombinant human MMP-3 (Homo sapiens, UniProt P08254); test: as above; format: biochemical; conditions: Table B
T7 construct: made in house
T7 sequence (P08254 100-477): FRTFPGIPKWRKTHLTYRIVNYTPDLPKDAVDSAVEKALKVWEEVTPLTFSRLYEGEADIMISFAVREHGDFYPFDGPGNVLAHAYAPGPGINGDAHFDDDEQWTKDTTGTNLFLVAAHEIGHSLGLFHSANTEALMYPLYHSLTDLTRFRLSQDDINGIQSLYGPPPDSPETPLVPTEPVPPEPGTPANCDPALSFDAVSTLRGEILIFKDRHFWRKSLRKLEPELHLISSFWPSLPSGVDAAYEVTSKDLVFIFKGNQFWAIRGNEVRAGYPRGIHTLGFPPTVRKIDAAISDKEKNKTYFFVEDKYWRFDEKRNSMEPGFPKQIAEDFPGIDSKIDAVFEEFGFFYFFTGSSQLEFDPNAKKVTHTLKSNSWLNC
Protocol: as §4, §1
MCA-ProLeuGlyLeuDpaAlaArgNH2
as §2, §3

T4 sequence (P22894 101-467): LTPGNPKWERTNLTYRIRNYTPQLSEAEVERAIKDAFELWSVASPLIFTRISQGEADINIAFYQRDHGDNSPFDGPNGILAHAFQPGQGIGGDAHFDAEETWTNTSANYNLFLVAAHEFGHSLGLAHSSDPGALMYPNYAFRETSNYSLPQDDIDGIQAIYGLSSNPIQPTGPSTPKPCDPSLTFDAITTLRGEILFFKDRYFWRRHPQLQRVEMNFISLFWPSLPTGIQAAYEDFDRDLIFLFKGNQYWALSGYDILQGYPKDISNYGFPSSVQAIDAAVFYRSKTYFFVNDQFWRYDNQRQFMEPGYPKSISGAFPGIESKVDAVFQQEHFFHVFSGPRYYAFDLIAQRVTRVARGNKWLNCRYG
T5 sequence (P14780 107-707 limits assumed): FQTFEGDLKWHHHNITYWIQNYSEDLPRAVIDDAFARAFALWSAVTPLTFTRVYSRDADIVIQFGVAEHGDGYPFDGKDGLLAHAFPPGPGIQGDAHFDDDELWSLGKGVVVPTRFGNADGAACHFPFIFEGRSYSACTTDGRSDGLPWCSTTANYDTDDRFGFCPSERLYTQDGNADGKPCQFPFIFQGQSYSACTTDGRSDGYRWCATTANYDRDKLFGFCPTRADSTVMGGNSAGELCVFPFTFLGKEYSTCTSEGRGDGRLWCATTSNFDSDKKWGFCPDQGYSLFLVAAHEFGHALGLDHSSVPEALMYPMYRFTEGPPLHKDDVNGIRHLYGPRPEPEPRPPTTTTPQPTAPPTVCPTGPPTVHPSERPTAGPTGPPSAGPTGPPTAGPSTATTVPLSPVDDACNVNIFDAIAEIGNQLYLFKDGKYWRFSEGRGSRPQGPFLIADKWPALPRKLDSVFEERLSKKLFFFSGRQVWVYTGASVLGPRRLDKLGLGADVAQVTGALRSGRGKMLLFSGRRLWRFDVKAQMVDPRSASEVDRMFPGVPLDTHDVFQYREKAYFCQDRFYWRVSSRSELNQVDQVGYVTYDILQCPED

## O=C(NO)c1ccccc1S(=O)(=O)N1CCC(Oc2ccc(C(F)(F)F)cc2)CC1 [Example 13, N-hydroxy-2-[[4-[4-(trifluoromethyl)phenoxy]-1-piperidinyl]sulfonyl]benzamide]
Recombinant human MMP-1; Inhibition Table A
  IC50: > 10000 nM

## O=C(NO)c1ccccc1S(=O)(=O)N1CCC(Cc2ccccc2)CC1 [Example 3, N-hydroxy-2-[[4-(phenylmethyl)-1-piperidinyl]sulfonyl]benzamide]
Recombinant human MMP-13; Inhibition Table A
  IC50: 1000 nM
Recombinant human MMP-1; Inhibition Table A
  IC50: > 10000 nM
Recombinant human MMP-2; Inhibition Table A
  IC50: 148 nM

## COc1ccc(S(=O)(=O)N2CCC(Sc3ccccc3)CC2)c(C(=O)NO)c1OC [Example 24]
Recombinant human MMP-8
  IC50: 107 nM

## O=C(NO)c1ccccc1CS(=O)(=O)c1ccc(Oc2ccccc2)cc1 [Example 1, N-hydroxy-2-[[(4-phenoxyphenyl)-sulfonyl]methyl]benzamide]
Recombinant human MMP-1; Inhibition Table A
  IC50: > 10000 nM

## O=C(NO)c1ccccc1S(=O)(=O)N1CCN(C(=O)c2ccccc2)CC1 [Example 53, 2-[(4-benzoyl-1-piperazinyl)sulfonyl]-N-hydroxybenzamide]
Recombinant human MMP-13; Table B
  IC50: 6700 nM
Recombinant human MMP-2; Table B
  IC50: 1000 nM

## O=C(NO)c1ccccc1S(=O)(=O)N1CCC(Oc2ccc(OC(F)(F)F)cc2)CC1 [Example 12, N-hydroxy-2-[[4-[4-(trifluoromethoxy)phenoxy]-1-piperidinyl]sulfonyl]benzamide]
Recombinant human MMP-13; Inhibition Table A
  IC50: 33 nM
Recombinant human MMP-1; Inhibition Table A
  IC50: > 10000 nM

## O=C(NO)c1ccccc1S(=O)(=O)Nc1ccc(Oc2ccccc2)cc1 [Example 15, N-hydroxy-2-[[(4-phenoxyphenyl)-amino]sulfonyl]benzamide]
Recombinant human MMP-13; Inhibition Table A
  IC50: 9000 nM
Recombinant human MMP-1; Inhibition Table A
  IC50: > 10000 nM
Recombinant human MMP-2; Inhibition Table A
  IC50: 3500 nM

## O=C(NO)c1ccccc1S(=O)(=O)N1CCC(OCc2ccc(C(F)(F)F)cc2)CC1 [Example 14, N-hydroxy-2-[[4-[[4-(trifluoromethyl)phenyl]methoxy]-1-piperidinyl]sulfonyl]benzamide]
Recombinant human MMP-13; Inhibition Table A
  IC50: 900 nM
Recombinant human MMP-1; Inhibition Table A
  IC50: > 10000 nM
Recombinant human MMP-2; Inhibition Table A
  IC50: 35 nM

## O=C(NO)c1ccccc1S(=O)(=O)N1CCC(Oc2ccccn2)CC1 [Example 44, N-hydroxyl-2-[[4-(2-pyridinyloxy)-1-piperidinyl]sulfonyl]benzamide, monohydrochloride]
Recombinant human MMP-1; Table B
  IC50: > 10000 nM

## O=C(NO)c1ccccc1S(=O)(=O)NCc1ccccc1 [Example 8, N-hydroxy-2-[(benzylamino)sulfonyl]benzamide]
Recombinant human MMP-13; Inhibition Table A
  IC50: > 10000 nM
Recombinant human MMP-1; Inhibition Table A
  IC50: > 10000 nM

## CC(O)(C(=O)NO)c1ccccc1S(=O)(=O)N1CCC(c2ccccc2)CC1 (centres unmarked) [Example 10, N,2-dihydroxy-2-methyl-2-[(4-phenyl-1-piperidinyl)sulfonyl]benzeneacetamide]
Recombinant human MMP-1; Inhibition Table A
  IC50: > 10000 nM

## CNC(=O)[C@@H](NC(=O)[C@H](CC(C)C)[C@H](O)C(=O)NO)C(C)(C)C [Marimastat]
[1]; clinical trials
  most common drug-related toxicity: musculoskeletal pain and stiffness
[1]; meta analysis of Phase I/II data, patients with advanced, treatment-refractory solid tumors
  effect on cancer-specific antigens used as surrogate markers for biological activity: dose-related reduction in the rise of cancer-specific antigens

## O=C(NO)c1ccccc1NS(=O)(=O)c1ccc(Oc2ccccc2)cc1 [Example 5, N-hydroxy-2-[[(4-phenoxyphenyl)-sulfonyl]amino]benzamide]
Recombinant human MMP-13; Inhibition Table A
  IC50: > 10000 nM
Recombinant human MMP-1; Inhibition Table A
  IC50: > 10000 nM

## COCCOc1cccc(S(=O)(=O)N2CCC(Oc3ccc(C(F)(F)F)cc3)CC2)c1C(=O)NO [Example 23, N-hydroxy-2-(2-methoxyethoxy)-6-[[4-[4-(trifluoromethyl)phenoxy]-1-piperidinyl]sulfonyl]benzamide]
Recombinant human MMP-1; Table B
  IC50: > 10000 nM

## O=C(NO)c1ccccc1S(=O)(=O)N1CCC(c2ccccc2)CC1 [Example 9, N-Hydroxy-2-[[4-(phenyl)-1-piperidnyl]sulfonyl]benzamide]
Recombinant human MMP-1; Inhibition Table A
  IC50: > 10000 nM

## COc1ccc(NS(=O)(=O)c2ccccc2C(=O)NO)cc1 [Example 7, N-hydroxy-2-[(4-methoxyanilino)sulfonyl]benzamide]
Recombinant human MMP-13; Inhibition Table A
  IC50: > 10000 nM
Recombinant human MMP-1; Inhibition Table A
  IC50: > 10000 nM

## COc1ccc(-c2ccc(OC3CCN(S(=O)(=O)c4ccc(OC)c(OC)c4C(=O)NO)CC3)cc2)cc1OC [Example 27]
Recombinant human MMP-13; Table B
  IC50: 2.6 nM
Recombinant human MMP-1; Table B
  IC50: > 10000 nM
Recombinant human MMP-9
  IC50: 370 nM
Recombinant human MMP-14
  IC50: 1700 nM
Recombinant human MMP-8
  IC50: 115 nM
Recombinant human MMP-3
  IC50: 100 nM
Recombinant human MMP-2; Table B
  IC50: 3.3 nM

## O=C(NO)c1ccccc1S(=O)(=O)N1CCC(Oc2ccc(C(F)(F)F)cc2)C1 (centres unmarked) [Example 17, N-hydroxy-2-[[3-[4-(trifluoromethyl)phenoxy]-1-pyrrolidinyl]sulfonyl]benzamide]
Recombinant human MMP-13; Inhibition Table A
  IC50: 2000 nM
Recombinant human MMP-2; Inhibition Table A
  IC50: 1800 nM

## COc1ccc(C(=O)NC2CCN(S(=O)(=O)c3ccccc3C(=O)NO)C2)cc1 (centres unmarked) [Example 11, N-hydroxy-2-[[3-[(4-methoxybenzoyl)amino]-1-pyrrolidinyl]sulfonyl]benzamide]
Recombinant human MMP-13; Inhibition Table A
  IC50: 2200 nM
Recombinant human MMP-2; Inhibition Table A
  IC50: 2300 nM

## O=C(NO)c1c(F)cccc1S(=O)(=O)N1CCC(Oc2ccc(C(F)(F)F)cc2)CC1 [Example 19]
Recombinant human MMP-1; Inhibition Table A
  IC50: > 10000 nM

## COc1ccc(S(=O)(=O)N2CCN(c3ccc(OC(F)(F)F)cc3)CC2)c(C(=O)NO)c1OC [Example 26]
Recombinant human MMP-13; Table B
  IC50: 17.9 nM
Recombinant human MMP-1; Table B
  IC50: > 10000 nM
Recombinant human MMP-9
  IC50: 40.1 nM
Recombinant human MMP-14
  IC50: 416 nM
Recombinant human MMP-8
  IC50: 7.1 nM
Recombinant human MMP-3
  IC50: 1460 nM
Recombinant human MMP-2; Table B
  IC50: 0.4 nM

## COc1ccccc1-c1ccc(OC2CCN(S(=O)(=O)c3ccc(OC)c(OC)c3C(=O)NO)CC2)cc1 [Example 22]
Recombinant human MMP-1; Table B
  IC50: > 10000 nM

## COc1ccc(S(=O)(=O)N2CCC(Oc3ccc(C(F)(F)F)cc3)CC2)c(C(=O)NO)c1OC [Example 16, N-hydroxy-2,3-dimethoxy-6-[[4-[4-(trifluoromethyl)phenoxy]-1-piperidinyl)sulfonyl]benzamide]
Recombinant human MMP-1; Inhibition Table A
  IC50: > 10000 nM

## O=C(NO)c1ccccc1S(=O)(=O)Cc1ccc(-c2ccccc2)cc1 [Example 4, 2-[([1,11-biphenyl]-4-ylmethyl)-sulfonyl]-N-hydroxybenzamide]
Recombinant human MMP-13; Inhibition Table A
  IC50: > 10000 nM
Recombinant human MMP-1; Inhibition Table A
  IC50: > 10000 nM
Recombinant human MMP-2; Inhibition Table A
  IC50: > 10000 nM

## CCCCOc1ccc(N2CCN(S(=O)(=O)c3ccc(OC)c(OC)c3C(=O)NO)CC2)cc1F [Example 25, 6-[[4-(butoxy-3-fluorophenyl)-1-piperazinyl]sulfonyl]-N-hydroxy-2,3-dimethoxybenzamide]
Recombinant human MMP-13; Table B
  IC50: 8.5 nM
Recombinant human MMP-1; Table B
  IC50: > 10000 nM
Recombinant human MMP-9
  IC50: 22.1 nM
Recombinant human MMP-14
  IC50: > 10000 nM
Recombinant human MMP-8
  IC50: 252 nM
Recombinant human MMP-3
  IC50: 294 nM
Recombinant human MMP-2; Table B
  IC50: 0.4 nM
